Measured values reported in patent US20240368135A1 (VERTEX PHARMACEUTICALS INCORPORATED, priority 2021, published 2024).

Target: human NaV 1.8 (Homo sapiens, UniProt Q9Y5Y9)
Experiment: E-VIPR assay detecting and measuring NaV inhibition properties
Type: cell-based
Settings: HEK cells expressing truncated human NaV 1.8; no human serum; read-out: IC50 in the E-VIPR Assay
In short: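 Membrane potential was followed by coumarin/oxonol FRET during electrical field stimulation of matrigel-seeded HEK cells carrying truncated human NaV1.8 plus KIR2.1. Dosing used 11 points, 3-fold steps, top 300 nM final, 0.625% DMSO, with or without 25% human serum.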

Sequence of human NaV 1.8 (Q9Y5Y9 126-399 limits assumed): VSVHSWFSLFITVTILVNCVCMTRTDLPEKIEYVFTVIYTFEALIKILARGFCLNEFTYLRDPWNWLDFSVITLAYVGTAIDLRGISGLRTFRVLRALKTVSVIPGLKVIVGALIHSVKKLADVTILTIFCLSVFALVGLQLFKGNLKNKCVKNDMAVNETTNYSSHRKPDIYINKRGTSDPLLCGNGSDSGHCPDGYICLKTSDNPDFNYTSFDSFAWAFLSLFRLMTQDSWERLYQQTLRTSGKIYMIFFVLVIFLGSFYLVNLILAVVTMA
Sequence of human NaV 1.8 (Q9Y5Y9 660-890 limits assumed): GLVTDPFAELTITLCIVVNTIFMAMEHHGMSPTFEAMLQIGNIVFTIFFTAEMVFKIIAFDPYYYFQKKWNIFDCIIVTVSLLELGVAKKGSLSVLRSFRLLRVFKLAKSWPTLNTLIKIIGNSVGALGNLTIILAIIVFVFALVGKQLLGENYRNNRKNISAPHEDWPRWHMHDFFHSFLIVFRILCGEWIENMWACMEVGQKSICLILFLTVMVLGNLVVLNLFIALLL
Sequence of human NaV 1.8 (Q9Y5Y9 1148-1722 limits assumed): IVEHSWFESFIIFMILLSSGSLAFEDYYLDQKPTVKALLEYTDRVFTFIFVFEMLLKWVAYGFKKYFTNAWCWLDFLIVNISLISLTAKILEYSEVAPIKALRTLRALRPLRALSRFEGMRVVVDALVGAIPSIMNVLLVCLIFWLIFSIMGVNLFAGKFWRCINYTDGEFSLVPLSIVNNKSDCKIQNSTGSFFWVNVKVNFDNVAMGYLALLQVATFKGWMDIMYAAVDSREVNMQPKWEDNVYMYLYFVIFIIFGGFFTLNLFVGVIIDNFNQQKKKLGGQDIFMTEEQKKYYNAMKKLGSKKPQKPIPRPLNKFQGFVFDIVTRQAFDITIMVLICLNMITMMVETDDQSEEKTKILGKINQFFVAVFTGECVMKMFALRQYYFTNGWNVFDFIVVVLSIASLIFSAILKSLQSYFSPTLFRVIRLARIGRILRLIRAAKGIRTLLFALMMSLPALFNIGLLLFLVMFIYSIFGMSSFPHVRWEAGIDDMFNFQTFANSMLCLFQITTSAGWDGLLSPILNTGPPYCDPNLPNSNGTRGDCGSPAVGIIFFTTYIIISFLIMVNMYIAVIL

Row | Compound | IC50 [nM]
1 | COc1c([C@H]2[C@H](C(=O)NC3(c4ccccc4)COC3)O[C@@](C)(C(F)(F)F)[C@H]2C)ccc(F)c1F [Compound 306, (2R,3S,4S,5R)-3-(3,4-difluoro-2-methoxyphenyl)-4,5-dimethyl-N-(3-phenyloxetan-3-yl)-5-(trifluoromethyl)tetrahydrofuran-2-carboxamide] | ≥ 1000
2 | COCc1cc(C)nc(NC(=O)[C@@H]2O[C@@](C)(C(F)(F)F)[C@@H](C)[C@H]2c2ccc(F)c(F)c2OCCO)n1 [Compound 562, (2R,3S,4S,5R)-3-(3,4-difluoro-2-(2-hydroxyethoxy)phenyl)-N-(4-(methoxymethyl)-6-methylpyrimidin-2-yl)-4,5-dimethyl-5-(trifluoromethyl)tetrahydrofuran-2-carboxamide] | ≥ 1000
3 | Cc1nocc1NC(=O)[C@@H]1O[C@@](C)(C(F)(F)F)[C@@H](C)[C@H]1c1ccc(F)c(F)c1OC[C@H](C)N1CC2(COC2)C1 [Compound 623, (2R,3S,4S,5R)-3-[3,4-difluoro-2-[(2S)-2-(2-oxa-6-azaspiro[3.3]heptan-6-yl)propoxy]phenyl]-4,5-dimethyl-N-(3-methylisoxazol-4-yl)-5-(trifluoromethyl)tetrahydrofuran-2-carboxamide] | 10 to 100
4 | COc1c([C@H]2[C@H](C(=O)Nc3ccnc(N4C[C@H](C)NCC4=O)c3)O[C@@](C)(C(F)(F)F)[C@H]2C)ccc(F)c1F [Compound 478, (2R,3S,4S,5R)-3-(3,4-difluoro-2-methoxyphenyl)-4,5-dimethyl-N-(2-((S)-5-methyl-2-oxopiperazin-1-yl)pyridin-4-yl)-5-(trifluoromethyl)tetrahydrofuran-2-carboxamide] | 10 to 100
5 | COc1c([C@H]2[C@H](C(=O)Nc3ccnc(N4CC[C@H](O)C4=O)c3)O[C@@](C)(C(F)(F)F)[C@H]2C)ccc(F)c1F [Compound 473, (2R,3S,4S,5R)-3-(3,4-difluoro-2-methoxyphenyl)-N-(2-((S)-3-hydroxy-2-oxopyrrolidin-1-yl)pyridin-4-yl)-4,5-dimethyl-5-(trifluoromethyl)tetrahydrofuran-2-carboxamide] | 10 to 100
6 | COc1c([C@H]2[C@H](C(=O)Nc3ccnc(CO)c3)O[C@@](C)(C(F)(F)F)[C@H]2C)ccc(F)c1F (single isomer, unassigned) [Compound 14] | < 10

Results, then the compound that gave them:

Row | IC50 [nM] | Compound
7 | < 10 | COc1c([C@@H]2C[C@](C)(C(F)(F)F)O[C@H]2C(=O)Nc2cn(S(C)(=O)=O)nc2C)ccc(F)c1F (stereo in doubt) [Compound 684, rel-(2R,3S,5R)-3-(3,4-difluoro-2-methoxyphenyl)-5-methyl-N-(3-methyl-1-(methylsulfonyl)-1H-pyrazol-4-yl)-5-(trifluoromethyl)tetrahydrofuran-2-carboxamide]
8 | < 10 | C[C@H]1[C@@H](c2ccc(F)c(F)c2OC(F)F)[C@H](C(=O)Nc2ccnnc2)O[C@@]1(C)C(F)(F)F (stereo in doubt) [Compound 64, rel-(2R,3S,4S,5R)-3-(2-(difluoromethoxy)-3,4-difluorophenyl)-4,5-dimethyl-N-(pyridazin-4-yl)-5-(trifluoromethyl)tetrahydrofuran-2-carboxamide]
9 | < 10 | COc1c([C@H]2[C@H](C(=O)Nc3cc(C4CN(C)CCO4)ncc3F)O[C@@](C)(C(F)(F)F)[C@H]2C)ccc(F)c1F (single isomer, unassigned) [Compound 366, rel-(2R*,3S*,4S*,5R*)-3-(3,4-difluoro-2-methoxyphenyl)-N-(5-fluoro-2-(4-methylmorpholin-2-yl)pyridin-4-yl)-4,5-dimethyl-5-(trifluoromethyl)tetrahydrofuran-2-carboxamide]
10 | < 10 | CNC(COC)c1cc(NC(=O)[C@@H]2O[C@@](C)(C(F)(F)F)[C@@H](C)[C@H]2c2ccc(F)c(F)c2OC)c(F)cn1 (single isomer, unassigned) [Compound 418, rel-(2R*,3S*,4S*,5R*)-3-(3,4-difluoro-2-methoxyphenyl)-N-(5-fluoro-2-(2-methoxy-1-(methylamino)ethyl)-pyridin-4-yl)-4,5-dimethyl-5-(trifluoromethyl)-tetrahydrofuran-2-carboxamide]
